In US10519162B2, “6,7-dihydropyrazolo[1,5-α]pyrazin-4(5H)-one compounds and their use as negative allosteric modulators of mGluR2 receptors” (Janssen Pharmaceutica NV, priority 2014, dated 2019):

Legend:
Wiga rats = assay: Induction of mydriasis (MYD); format: in vivo; conditions: Rattus norvegicus, PO (oral route), pupil diameter >25 units, 1-3 h post-administration
Method: 3) Induction of Mydriasis
The pupil diameter of Wiga rats was measured with a microscopic micrometer (1 unit=1/24 mm). Criteria for drug-induced effects: pupil diameter >25 units for mydriasis (in controls: 1.9%) 1, 2 or 3 h post-administration of the test compound (wherein the maximum pupil diameter over the full 3 h period is reported).

human mGlu2 receptor = target: T1, human mGlu2 receptor (Homo sapiens, UniProt Q14416); assay: [35S]GTPγS binding assay (mGluR2 negative allosteric modulation, glutamate ~EC80 60 μM); format: biochemical; conditions: for Emax / GTPγS-hmGluR2 anGT Emax: maximal % inhibition relative to the control glutamate response (EC80 glutamate); for Emax: read-out: GTPγS-hmGluR2 anGT Emax; for IC50: membranes from CHO cells transfected with human mGlu2 receptor, glutamate ~EC80 (60 μM), pIC50 = −log IC50 (M), read-out: GTPγS-hmGluR2 anGT pIC50 (converted)
T1 construct: expressed in transfected cells; host or cells: CHO cells
Method: 1) [^35S]GTPγS Binding Assay
[^35S]GTPγS Binding Assay
Total reaction volume was 200 μl. […] Membrane-bound radioactivity was counted in a Topcount.

rats = assay: Reversal of the effect of the mGluR2 PAM JNJ-42153605-induced inhibition of scopolamine-induced hyperlocomotion (SCOP JNJ-42153605); format: in vivo, rat; conditions: Rattus norvegicus; PO (oral route); rats; reversal criterion total distance >1500 cm
Method: 2) Reversal of the Effect of the mGluR2 PAM JNJ-42153605-Induced Inhibition of Scopolamine-Induced Hyperlocomotion Apparatus
Motor activity was measured in microprocessor-based motor activity arenas (closed gray PVC cylinders with a height of 39 cm and a diameter of 31 cm). Each arena was placed on an infrared LED (8×8 LEDs) lit box (white PVC squared box; 40×40 cm^2; height 12.5 cm. An infrared-sensitive tube camera and a white light source were mounted to the ceiling above the observation chamber to track the animal. The total distance traveled (cm) was recorded and analyzed using the Noldus Ethovision XT Video Tracking System (Version 7.0.418; Noldus, Wageningen, The Netherlands). The intensity of the light within the activity cages (measured in the centre at the level of the floor) ranged between 4 and 8 LUX.
The rats were pretreated with test compound or vehicle at 60 min before the start of the activity recordings and placed into individual cages. The rats were challenged with JNJ-42153605 (3-(cyclopropylmethyl)-7-(4-phenylpiperidin-1-yl)-8-(trifluoromethyl)[1,2,4]triazolo[4,3-a]pyridine; WO2010/130424; Cid et al. J. Med. Chem. 2012, 55, 8770-8789) (20 mg/kg, i.v.) 30 min before the start of the activity recording combined with scopolamine (0.16 mg/kg, i.v.) just before the start of the activity measurements. Immediately after the injection of scopolamine, the rats were placed into the activity monitors and total distance travelled over the first 30 min was measured.
Solvent-Pretreated Control Rats.
Animals receiving the combination of JNJ-42153605 and scopolamine (n=433) almost always travelled a distance of less than 1500 cm (<1500 cm) (only 2.5% of the control rats travelled a distance of more than 1500 cm (>1500 cm)). On the other hand, animals challenged with scopolamine alone (n=215) always travelled a total distance of more than 1500 cm (>1500 cm) and almost always (in 95.8% of the rats) a distance of more than 4400 cm (>4400 cm). […] For reversal of the inhibitory effect of JNJ-42153605 on the scopolamine-induced hyperlocomotion, the following all-or-none criteria were adopted: (1) reversal: total distance >1500 cm.

Male Wiga Wistar rats = assay: Reversal of LY-404039-induced decrease of palpebral opening in apomorphine-challenged rats (APO LY-404039); format: in vivo, rat; conditions: for ED50: Rattus norvegicus, PO (oral route), apomorphine challenged rats;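 for ED50: Reversal defined as cumulative palpebral opening score above 26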
Method: B) In Vivo Pharmacology 1) Reversal of LY-404039-Induced Decrease of Palpebral Opening in Apomorphine-Challenged Rats.
Male Wiga Wistar rats (Crl:WI; Charles River Germany; 220±40 g) were housed under standard laboratory conditions (21±2° C.; 50-65% relative humidity; light-dark cycle set at 12 h; lights on at 6.00 h) and fasted overnight prior to the start of the experiments (tap water remained available ad libitum). During the test period, they were housed in individual cages. Palpebral opening was scored every 5 min over the first hour after injection of apomorphine (1.0 mg/kg, i.v.) in animals either pretreated or not pretreated with LY-404039 (2.5 mg/kg, s.c.) at 1 h prior to the apomorphine injection. The animals were also pretreated with test compound or solvent at a predefined interval before apomorphine challenge. The score system was: (5) exophthalmos, (4) wide open, (3) open for three-quarters, (2) half open, (1) open for one-quarter, (0) closed. The scores for palpebral opening were cumulated over the 60-min observation period.
In animals receiving apomorphine alone the median palpebral opening is 43 whereas in animals receiving apomorphine and LY-404039, the median palpebral opening is 17.

[1] = control animals, cumulative score over 60 min

T1 sequence (Q14416 19-872): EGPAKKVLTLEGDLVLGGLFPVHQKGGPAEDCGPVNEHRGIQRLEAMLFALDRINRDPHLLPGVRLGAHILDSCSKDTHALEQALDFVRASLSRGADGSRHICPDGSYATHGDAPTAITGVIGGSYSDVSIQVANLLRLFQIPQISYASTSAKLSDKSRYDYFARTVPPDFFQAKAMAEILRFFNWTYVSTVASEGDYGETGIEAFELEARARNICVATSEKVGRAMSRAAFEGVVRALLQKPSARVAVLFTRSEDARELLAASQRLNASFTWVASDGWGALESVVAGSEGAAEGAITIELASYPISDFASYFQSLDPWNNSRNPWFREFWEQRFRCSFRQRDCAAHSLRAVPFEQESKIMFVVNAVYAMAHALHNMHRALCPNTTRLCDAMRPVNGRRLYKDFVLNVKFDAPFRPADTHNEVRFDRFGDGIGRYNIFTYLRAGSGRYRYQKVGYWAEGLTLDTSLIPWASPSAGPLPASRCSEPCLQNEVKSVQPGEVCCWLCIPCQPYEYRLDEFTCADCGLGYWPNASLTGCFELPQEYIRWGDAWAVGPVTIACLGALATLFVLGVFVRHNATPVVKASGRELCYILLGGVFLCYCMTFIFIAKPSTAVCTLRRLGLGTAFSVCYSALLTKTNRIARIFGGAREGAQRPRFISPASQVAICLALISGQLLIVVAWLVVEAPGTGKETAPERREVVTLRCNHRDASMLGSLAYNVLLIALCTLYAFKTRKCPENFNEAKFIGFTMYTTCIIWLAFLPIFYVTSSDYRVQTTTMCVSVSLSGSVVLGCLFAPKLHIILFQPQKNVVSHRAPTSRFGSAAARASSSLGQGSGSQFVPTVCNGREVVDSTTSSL

SMILES	melting point	Emax (human mGlu2 receptor)	IC50 (human mGlu2 receptor)	GTPγS-hmGluR2 anGT Emax (human mGlu2 receptor)	ED50 (Wiga rats)	ED50 (rats)	ED50 (Male Wiga Wistar rats)	Palpebral opening score, occurrence score > 26 (%) (Male Wiga Wistar rats; [1])	Palpebral opening score, occurrence score > 34 (%) (Male Wiga Wistar rats; [1])	Palpebral opening score, median score (Male Wiga Wistar rats; control animals, scores cumulated over 60 min after apomorphine 1.0 mg/kg i.v., LY-404039 2.5 mg/kg s.c. 1 h before)
COCC1CN(c2ccc(C(F)(F)F)cc2)C(=O)c2c(NC(=O)c3ccccc3F)cnn21 (single isomer, unassigned) [Co. No. 62a]	162.59 °C		1.26e-08 M	111%		> 2.5 mg/kg	> 2.5 mg/kg			
CN1CCc2cccc3c2[C@H]1Cc1ccc(O)c(O)c1-3 [Apomorphine alone, apomorphine, reference compound]								99.5%	95.9%	43
C[C@H]1CN(c2ccc(C(F)(F)F)c(Cl)c2)C(=O)c2c(NC(=O)c3cccnc3)cnn21 [Co. No. 100]	157.47 °C	106%	2.19e-09 M		> 2.5 mg/kg	0.8 mg/kg				
C[C@H]1CN(c2ccc(Cl)c(Cl)c2)C(=O)c2c(NC(=O)c3cnccn3)cnn21 [Co. No. 104]	201.39 °C	107%	1.82e-09 M		6.6 mg/kg	0.32 mg/kg				
Cc1cc(C(=O)Nc2cnn3c2C(=O)N(c2ccc(C(F)(F)F)c(C)c2)C[C@@H]3C)cc(C)n1 [Co. No. 113]	164.61 °C	107%	2.04e-09 M		> 40 mg/kg	0.5 mg/kg				
Cc1cc(C(=O)Nc2cnn3c2C(=O)N(c2ccc(C(F)(F)F)c(Cl)c2)C[C@@H]3C)cc(C)n1 [Co. No. 172]		110%	1.32e-09 M		> 40 mg/kg	0.32 mg/kg				
C[C@H]1CN(c2ccc(S(F)(F)(F)(F)F)cc2)C(=O)c2c(NC(=O)c3cccnc3)cnn21 [Co. No. 175]	205.19 °C	108%	3.16e-09 M		> 10 mg/kg	0.318 mg/kg				
C[C@H]1CN(c2ccc(OC(F)(F)F)cc2)C(=O)c2c(NC(=O)c3cccnc3)cnn21 [Co. No. 178]	125.45 °C	105%	1.48e-08 M		> 10 mg/kg	0.318 mg/kg				
C[C@H]1CN(c2ccc(Cl)c(Cl)c2)C(=O)c2c(NC(=O)c3cccnc3N)cnn21 [Co. No. 185]	193.17 °C	113%	1.07e-09 M		> 10 mg/kg	0.08 mg/kg				
Cc1cnc(N)c(C(=O)Nc2cnn3c2C(=O)N(c2ccc(C(F)(F)F)c(C)c2)C[C@@H]3C)c1 [Co. No. 197]	190.13 °C	108%	1.32e-09 M		> 10 mg/kg	0.13 mg/kg				
Cc1cnc(N)c(C(=O)Nc2cnn3c2C(=O)N(c2ccc(Cl)c(Cl)c2)C[C@@H]3C)c1 [Co. No. 199]	220.49 °C	109%	9.77e-10 M			0.08 mg/kg				
Cc1cnc(N)c(C(=O)Nc2cnn3c2C(=O)N(c2ccc(S(F)(F)(F)(F)F)cc2)C[C@@H]3C)c1 [Co. No. 200]	197.51 °C	111%	1.48e-09 M			> 0.63 mg/kg				
C[C@H]1CN(c2ccc(S(F)(F)(F)(F)F)cc2)C(=O)c2c(NC(=O)c3cccnc3N)cnn21 [Co. No. 202]	223.96 °C	108%	1.15e-09 M			0.2 mg/kg				
Cc1cc(C(=O)Nc2cnn3c2C(=O)N(c2ccc(Cl)cc2)C[C@@H]3C)cc(N)n1 [Co. No. 203]	223.01 °C	105%	1.12e-08 M			> 0.63 mg/kg				

Further lines, with some results ahead:

melting point	Emax (human mGlu2 receptor)	IC50 (human mGlu2 receptor)	GTPγS-hmGluR2 anGT Emax (human mGlu2 receptor)	SMILES	ED50 (Wiga rats)	ED50 (rats)	ED50 (Male Wiga Wistar rats)	Palpebral opening score, occurrence score > 26 (%) (Male Wiga Wistar rats; [1])	Palpebral opening score, occurrence score > 34 (%) (Male Wiga Wistar rats; [1])	Palpebral opening score, median score (Male Wiga Wistar rats; control animals, scores cumulated over 60 min after apomorphine 1.0 mg/kg i.v., LY-404039 2.5 mg/kg s.c. 1 h before)
277.76 °C	109%	1.51e-09 M		Cc1cc(C(=O)Nc2cnn3c2C(=O)N(c2ccc(C(F)(F)F)cc2)C[C@@H]3C)cnc1N (racemic) [Co. No. 187]	> 10 mg/kg	0.0794 mg/kg				
225.94 °C		6.31e-09 M	114%	COCC1CN(c2ccc(C(F)(F)F)cc2)C(=O)c2c(NC(=O)c3ccc(N)nc3)cnn21 (single isomer, unassigned) [Co. No. 95]		1.26 mg/kg	> 2.5 mg/kg			
202.24 °C	106%	1.66e-09 M		Cc1cc(N2C[C@H](C)n3ncc(NC(=O)c4ccc(N)nc4)c3C2=O)ccc1C(F)(F)F [Co. No. 4]		0.5 mg/kg	1.26 mg/kg			
230.53 °C	108%	1.7e-09 M		C[C@H]1CN(c2ccc(C(F)(F)F)c(Cl)c2)C(=O)c2c(NC(=O)c3cnccn3)cnn21 [Co. No. 176]	> 10 mg/kg	0.32 mg/kg				
142.58 °C	110%	7.08e-10 M		C[C@H]1CN(c2ccc(C(F)(F)F)c(Cl)c2)C(=O)c2c(NC(=O)c3cccnc3N)cnn21 [Co. No. 182]	> 10 mg/kg	0.0985 mg/kg				
175.63 °C	110%	1.23e-09 M		Cc1cc(N2C[C@H](C)n3ncc(NC(=O)c4cccnc4N)c3C2=O)ccc1C(F)(F)F [Co. No. 184]	> 10 mg/kg	0.2 mg/kg				
214.96 °C	109%	1.82e-09 M		C[C@H]1CN(c2ccc(C(F)(F)F)cc2)C(=O)c2c(NC(=O)c3cccnc3N)cnn21 [Co. No. 189]	> 10 mg/kg	0.2 mg/kg				
222.34 °C	112%	1.95e-09 M		Cc1cnc(N)c(C(=O)Nc2cnn3c2C(=O)N(c2ccc(C(F)(F)F)cc2)C[C@@H]3C)c1 [Co. No. 191]	> 10 mg/kg	0.318 mg/kg				
188.46 °C	109%	2.63e-09 M		C[C@H]1CN(c2ccc(OC(F)(F)F)cc2)C(=O)c2c(NC(=O)c3cccnc3N)cnn21 [Co. No. 196]	> 10 mg/kg	0.32 mg/kg				
209.11 °C	109%	4.07e-09 M		C[C@H]1CN(c2ccc(Cl)cc2)C(=O)c2c(NC(=O)c3cccnc3N)cnn21 [Co. No. 198]		> 0.63 mg/kg				
250.78 °C	107%	2.82e-09 M		C[C@H]1CN(c2ccc(C(F)(F)F)cc2)C(=O)c2c(NC(=O)c3ccc(N)cc3)cnn21 [Co. No. 204]		0.318 mg/kg				
205.79 °C	110%	3.02e-09 M		C[C@H]1CN(c2ccc(C(F)(F)F)cc2)C(=O)c2c(NC(=O)c3nccnc3N)cnn21 [Co. No. 206, 3-Amino-N-[(7S)-7-methyl-4-oxo-5-[4-(trifluoromethyl)phenyl]-6,7-dihydropyrazolo[1,5-a]pyrazin-3-yl]pyrazine-2-carboxamide]		0.505 mg/kg				
176.26 °C	106%	2.09e-09 M		C[C@H]1CN(c2ccc(C(F)(F)F)c(CF)c2)C(=O)c2c(NC(=O)c3cccnc3N)cnn21 [Co. No. 210]		0.32 mg/kg				
